Assay results as given in patent US20250129069A1, “TRIAZOLO WRN INHIBITORS” (Nimbus Wadjet, Inc., priority 2023, published 2025).
Like-named read-outs stand apart in the source and are kept apart here.

Legend:
[1] = system: p21 induction in HCT 116 cells; experiment: p21 induction in cells (In-Cell Western, p21/GAPDH ratio); assay type: cell-based; conditions: 24 h compound incubation, read-out: p21_EC50
In short: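 EC50 values come from nonlinear fits of percent activation, defined by the 800/700 nm p21-to-GAPDH ratio scaled between DMSO (low) and internal WRN inhibitor (high) controls. In-Cell Western read after 24 h compound exposure of HCT 116 cells at 37° C. Duplicate 11-point series, 2-fold steps, usually starting at 10 μM.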

[2] = molecular target: human Werner helicase (WRN, amino acids 517-1235 with L1074F point mutation) (Homo sapiens (Human), UniProt Q14191, L1074F); experiment: WRN (BV08) ADP-Glo assay; assay type: biochemical; conditions: human WRN (aa 517-1235, L1074F), read-out: ADP-Glo_hWRN_IC50
Chain of human Werner helicase (WRN, amino acids 517-1235 with L1074F point mutation) (Q14191 other isoform, or with tags, fused parts or gaps L1074F (already in the parent)): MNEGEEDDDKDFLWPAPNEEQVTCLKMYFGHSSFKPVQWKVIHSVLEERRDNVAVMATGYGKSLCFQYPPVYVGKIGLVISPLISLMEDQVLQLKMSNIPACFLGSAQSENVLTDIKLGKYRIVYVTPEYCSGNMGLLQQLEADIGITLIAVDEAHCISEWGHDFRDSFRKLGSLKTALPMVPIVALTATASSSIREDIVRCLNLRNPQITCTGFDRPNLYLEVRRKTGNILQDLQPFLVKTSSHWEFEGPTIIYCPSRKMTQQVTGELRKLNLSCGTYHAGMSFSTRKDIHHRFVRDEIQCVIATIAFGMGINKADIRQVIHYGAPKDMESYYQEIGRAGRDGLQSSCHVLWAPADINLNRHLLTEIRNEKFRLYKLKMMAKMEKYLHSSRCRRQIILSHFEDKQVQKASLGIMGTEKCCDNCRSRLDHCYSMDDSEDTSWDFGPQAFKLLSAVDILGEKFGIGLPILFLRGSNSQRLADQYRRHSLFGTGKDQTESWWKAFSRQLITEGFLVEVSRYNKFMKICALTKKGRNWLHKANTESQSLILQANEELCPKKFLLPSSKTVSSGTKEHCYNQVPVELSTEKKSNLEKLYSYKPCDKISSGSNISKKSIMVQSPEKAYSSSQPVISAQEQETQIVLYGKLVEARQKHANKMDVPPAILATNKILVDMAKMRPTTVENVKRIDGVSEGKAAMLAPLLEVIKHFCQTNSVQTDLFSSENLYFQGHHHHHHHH
In short: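 ADP-Glo luminescence read after 60 min, 25 °C reaction of 0.15 nM WRN (517-1235, L1074F, Sf9-expressed, tag removed) with 0.1 nM DNA duplex and 5 μM ATP, following 15 min compound preincubation; 20 mM Bicine pH 7.5, 1% DMSO. IC50 from 3- or 4-parameter fit of % inhibition.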

## CCc1c(N2CCN(C(=O)c3ncnc(C)c3O)[C@H]3CC[C@@H]32)c(=O)c2nn(-c3ccnc(OC)c3)nc2n1CC(=O)NC1CC2(CCCC2)C1 [Compound I-89, 2-{5-ethyl-6-[(1S,6S)-5-(5-hydroxy-6-methylpyrimidine-4-carbonyl)-2,5-diazabicyclo[4.2.0]octan-2-yl]-2-(2-methoxypyridin-4-yl)-7-oxo-2H,4H,7H-[1,2,3]triazolo[4,5-b]pyridin-4-yl}-N-{spiro[3.4]octan-2-yl}acetamide]
[1]; Homo sapiens
  EC50: ≤ 0.5 µM
[2]
  IC50: 0.005 to 0.05 µM

## CCc1c(N2CCN(C(=O)c3ncnc(C)c3O)CC2)c(=O)c2nn(-c3ccnc(OC)c3)nc2n1CC(=O)NC12CC(C(F)(F)F)(C1)C2 [Compound I-5, 2-(5-ethyl-6-(4-(5-hydroxy-6-methylpyrimidine-4-carbonyl)piperazin-1-yl)-2-(2-methoxypyridin-4-yl)-7-oxo-2,7-dihydro-4H-[1,2,3]triazolo[4,5-b]pyridin-4-yl)-N-(3-(trifluoromethyl)bicyclo[1.1.1]pentan-1-yl)acetamide]
[1]
  EC50: 0.5 to 2 µM
[2]
  IC50: 0.005 to 0.05 µM

## CCc1c(N2CCN(C(=O)c3c(N)ncnc3OC)[C@H]3CC[C@@H]32)c(=O)c2nn(C3=CCOCC3)nc2n1CC(=O)NC12CC(C3CC3)(C1)C2 [Compound I-193, 2-{6-[(1S,6S)-5-(4-amino-6-methoxypyrimidine-5-carbonyl)-2,5-diazabicyclo[4.2.0]octan-2-yl]-2-(3,6-dihydro-2H-pyran-4-yl)-5-ethyl-7-oxo-2H,4H,7H-[1,2,3]triazolo[4,5-b]pyridin-4-yl}-N-{3-cyclopropylbicyclo[1.1.1]pentan-1-yl}acetamide]
[1]; Homo sapiens
  EC50: 0.5 to 2 µM
[2]
  IC50: 0.005 to 0.05 µM

## CCc1c(N2CCN(C(=O)c3ncnc(C)c3O)[C@@H]3CCC[C@@H]32)c(=O)c2nn(-c3ccnc(OC)c3)nc2n1CC(=O)NC12CC(C(C)C)(C1)C2 (relative stereo) [Compound I-77, rel-2-{6-[(4aR,7aS)-4-(5-hydroxy-6-methylpyrimidine-4-carbonyl)-octahydro-1H-cyclopenta[b]pyrazin-1-yl]-5-ethyl-2-(2-methoxypyridin-4-yl)-7-oxo-2H,4H,7H-[1,2,3]triazolo[4,5-b]pyridin-4-yl}-N-[3-(propan-2-yl)bicyclo[1.1.1]pentan-1-yl]acetamide]
[1]; Homo sapiens
  EC50: > 5 µM
[2]
  IC50: > 0.5 µM

## CCc1c(N2CCN(C(=O)c3ncnc(C)c3O)[C@H]3CC[C@@H]32)c(=O)c2nn(C3=CCOCC3)nc2n1CC(=O)NC12CC(C3CC3)(C1)C2 [Compound I-26, N-(3-cyclopropylbicyclo[1.1.1]pentan-1-yl)-2-(2-(3,6-dihydro-2H-pyran-4-yl)-5-ethyl-6-((1S,6S)-5-(5-hydroxy-6-methylpyrimidine-4-carbonyl)-2,5-diazabicyclo[4.2.0]octan-2-yl)-7-oxo-2,7-dihydro-4H-[1,2,3]triazolo[4,5-b]pyridin-4-yl)acetamide]
[1]; Homo sapiens
  EC50: ≤ 0.5 µM
[2]
  IC50: 0.005 to 0.05 µM

## CCc1c(N2CCN(C(=O)c3c(OC)ncc(C)c3O)[C@H]3CC[C@@H]32)c(=O)c2nn(-c3ccnc(C)c3)nc2n1CC(=O)NC12CC(C(C)C)(C1)C2 [Compound I-94, 2-{5-ethyl-6-[(1S,6S)-5-(4-hydroxy-2-methoxy-5-methylpyridine-3-carbonyl)-2,5-diazabicyclo[4.2.0]octan-2-yl]-2-(2-methylpyridin-4-yl)-7-oxo-2H,4H,7H-[1,2,3]triazolo[4,5-b]pyridin-4-yl}-N-[3-(propan-2-yl)bicyclo[1.1.1]pentan-1-yl]acetamide]
[1]; Homo sapiens
  EC50: ≤ 0.5 µM
[2]
  IC50: 0.005 to 0.05 µM

## CCc1c(N2CCN(C(=O)c3ncnc(C)c3O)[C@H]3CC[C@@H]32)c(=O)c2nn(C3=CCO[C@H](C)C3)nc2n1CC(=O)NC12CC(C3CC3)(C1)C2 (single isomer, unassigned) [Compound I-180]
[1]; Homo sapiens
  EC50: ≤ 0.5 µM
[2]
  IC50: 0.005 to 0.05 µM

## CCc1c(N2CCN(C(=O)c3ncnc(C)c3O)[C@H]3CC[C@@H]32)c(=O)c2nn(-c3ccnc(C)c3)nc2n1CC(=O)NC12CC(C3CC3)(C1)C2 [Compound I-19, N-(3-cyclopropylbicyclo[1.1.1]pentan-1-yl)-2-(5-ethyl-6-((1S,6S)-5-(5-hydroxy-6-methylpyrimidine-4-carbonyl)-2,5-diazabicyclo[4.2.0]octan-2-yl)-2-(2-methylpyridin-4-yl)-7-oxo-2,7-dihydro-4H-[1,2,3]triazolo[4,5-b]pyridin-4-yl)acetamide]
[1]; Homo sapiens
  EC50: ≤ 0.5 µM
[2]
  IC50: 0.005 to 0.05 µM

## CCc1c(N2CCN(C(=O)c3c(OC)ncc(C)c3O)CC2)c(=O)c2nn(-c3ccnc(OC)c3)nc2n1CC(=O)NC12CC(C3CCOC3)(C1)C2 (stereo not shown) [Compound I-123, 2-{5-ethyl-6-[4-(4-hydroxy-2-methoxy-5-methylpyridine-3-carbonyl)piperazin-1-yl]-2-(2-methoxypyridin-4-yl)-7-oxo-2H,4H,7H-[1,2,3]triazolo[4,5-b]pyridin-4-yl}-N-[3-(oxolan-3-yl)bicyclo[1.1.1]pentan-1-yl]acetamide]
[1]; Homo sapiens
  EC50: > 5 µM
[2]
  IC50: 0.05 to 0.1 µM

## CCc1c(N2CCN(C(=O)c3c(OC)ncc(C)c3O)[C@H]3CC[C@@H]32)c(=O)c2nn(-c3ccnc(OC)c3)nc2n1CC(=O)NC1CC2(CCC2)C1 [Compound I-93, 2-{5-ethyl-6-[(1S,6S)-5-(4-hydroxy-2-methoxy-5-methylpyridine-3-carbonyl)-2,5-diazabicyclo[4.2.0]octan-2-yl]-2-(2-methoxypyridin-4-yl)-7-oxo-2H,4H,7H-[1,2,3]triazolo[4,5-b]pyridin-4-yl}-N-{spiro[3.3]heptan-2-yl}acetamide]
[1]; Homo sapiens
  EC50: ≤ 0.5 µM
[2]
  IC50: 0.005 to 0.05 µM

## CCc1c(N2CCN(C(=O)c3ccccc3C(=O)O)CC2)c(=O)c2nn(-c3ccnc(OC)c3)nc2n1CC(=O)NC12CC(C3CC3)(C1)C2 [Compound I-161, 2-(4-{4-[{{3-cyclopropylbicyclo[1.1.1]pentan-1-yl}carbamoyl)methyl]-5-ethyl-2-(2-methoxypyridin-4-yl)-7-oxo-2H,4H,7H-[1,2,3]triazolo[4,5-b]pyridin-6-yl}piperazine-1-carbonyl)benzoic acid]
[1]; Homo sapiens
  EC50: > 5 µM
[2]
  IC50: 0.005 to 0.05 µM

## CCc1c(N2CCN(C(=O)c3c(OC)ncc(C)c3O)[C@H]3CC[C@@H]32)c(=O)c2nn(-c3ccnc(C)c3)nc2n1CC(=O)Nc1ccc(C(F)(F)F)cc1Cl [Compound I-100, N-[2-chloro-4-(trifluoromethyl)phenyl]-2-{5-ethyl-6-[(1S,6S)-5-(4-hydroxy-2-methoxy-5-methylpyridine-3-carbonyl)-2,5-diazabicyclo[4.2.0]octan-2-yl]-2-(2-methylpyridin-4-yl)-7-oxo-2H,4H,7H-[1,2,3]triazolo[4,5-b]pyridin-4-yl}acetamide]
[1]; Homo sapiens
  EC50: ≤ 0.5 µM
[2]
  IC50: 0.005 to 0.05 µM

## CCc1c(N2CCN(C(=O)c3ncnc(C)c3O)[C@H]3CC[C@@H]32)c(=O)c2nn(-c3cnn(C4CC4)c3)nc2n1CC(=O)NC12CC(C(C)C)(C1)C2 [Compound I-58, 2-[2-(1-cyclopropyl-1H-pyrazol-4-yl)-5-ethyl-6-[(1S,6S)-5-(5-hydroxy-6-methylpyrimidine-4-carbonyl)-2,5-diazabicyclo[4.2.0]octan-2-yl]-7-oxo-2H,4H,7H-[1,2,3]triazolo[4,5-b]pyridin-4-yl]-N-[3-(propan-2-yl)bicyclo[1.1.1]pentan-1-yl]acetamide]
[1]
  EC50: ≤ 0.5 µM
[2]
  IC50: 0.005 to 0.05 µM

## CCc1c(N2CCN(C(=O)c3cc(N4CCC(C)(O)C4)cnc3OC)[C@H]3CC[C@@H]32)c(=O)c2nn(C3=CCOCC3)nc2n1CC(=O)NC12CC(C3CC3)(C1)C2 (stereo partly drawn) [Compound I-186, N-{3-cyclopropylbicyclo[1.1.1]pentan-1-yl}-2-[2-(3,6-dihydro-2H-pyran-4-yl)-5-ethyl-6-[(1S,6S)-5-[5-(3-hydroxy-3-methylpyrrolidin-1-yl)-2-methoxypyridine-3-carbonyl]-2,5-diazabicyclo[4.2.0]octan-2-yl]-7-oxo-2H,4H,7H-[1,2,3]triazolo[4,5-b]pyridin-4-yl]acetamide]
[1]; Homo sapiens
  EC50: 0.5 to 2 µM
[2]
  IC50: 0.005 to 0.05 µM

## CCc1c(N2CCN(C(=O)c3c(Oc4cnn(C)c4)ncc(C)c3O)CC2)c(=O)c2nn(-c3ccnc(OC)c3)nc2n1CC(=O)NC12CC(C(C)C)(C1)C2 [Compound I-63, 2-[5-ethyl-6-(4-{4-hydroxy-5-methyl-2-[(1-methyl-1H-pyrazol-4-yl)oxy]pyridine-3-carbonyl}piperazin-1-yl)-2-(2-methoxypyridin-4-yl)-7-oxo-2H,4H,7H-[1,2,3]triazolo[4,5-b]pyridin-4-yl]-N-[3-(propan-2-yl)bicyclo[1.1.1]pentan-1-yl]acetamide]
[1]; Homo sapiens
  EC50: ≤ 0.5 µM
[2]
  IC50: 0.005 to 0.05 µM

## CCc1c(N2CCN(C(=O)c3c(OC)ncc(C)c3O)CC2)c(=O)c2nn(-c3ccnc(OC)c3)nc2n1CC(=O)NC1CC2(CCC(F)(F)CC2)C1 [Compound I-106, N-{7,7-difluorospiro[3.5]nonan-2-yl}-2-{5-ethyl-6-[4-(4-hydroxy-2-methoxy-5-methylpyridine-3-carbonyl)piperazin-1-yl]-2-(2-methoxypyridin-4-yl)-7-oxo-2H,4H,7H-[1,2,3]triazolo[4,5-b]pyridin-4-yl}acetamide]
[1]; Homo sapiens
  EC50: > 5 µM
[2]
  IC50: 0.005 to 0.05 µM

## CCc1c(N2CCN(C(=O)c3cnccc3OC)[C@H]3CC[C@@H]32)c(=O)c2nn(C3=CCOCC3)nc2n1CC(=O)NC12CC(C(C)C)(C1)C2 [Compound I-203, 2-[2-(3,6-dihydro-2H-pyran-4-yl)-5-ethyl-6-[(1S,6S)-5-(4-methoxypyridine-3-carbonyl)-2,5-diazabicyclo[4.2.0]octan-2-yl]-7-oxo-2H,4H,7H-[1,2,3]triazolo[4,5-b]pyridin-4-yl]-N-[3-(propan-2-yl)bicyclo[1.1.1]pentan-1-yl]acetamide]
[1]; Homo sapiens
  EC50: 0.5 to 2 µM
[2]
  IC50: 0.005 to 0.05 µM
